Results: paper PMC10489644, “In Vitro Evaluation of the Potential for Drug Interactions by Salidroside” (Nutrients, 2023)
“Also recorded” adds a separate entry of the source.

Columns and labels:
recombinant human MAO-A = biological target: T1, recombinant human MAO-A (Homo sapiens, UniProt P21397); test: MAO inhibition, kynuramine oxidation to 4-hydroxyquinoline; assay type: biochemical
T1 sequence (P21397 1-527): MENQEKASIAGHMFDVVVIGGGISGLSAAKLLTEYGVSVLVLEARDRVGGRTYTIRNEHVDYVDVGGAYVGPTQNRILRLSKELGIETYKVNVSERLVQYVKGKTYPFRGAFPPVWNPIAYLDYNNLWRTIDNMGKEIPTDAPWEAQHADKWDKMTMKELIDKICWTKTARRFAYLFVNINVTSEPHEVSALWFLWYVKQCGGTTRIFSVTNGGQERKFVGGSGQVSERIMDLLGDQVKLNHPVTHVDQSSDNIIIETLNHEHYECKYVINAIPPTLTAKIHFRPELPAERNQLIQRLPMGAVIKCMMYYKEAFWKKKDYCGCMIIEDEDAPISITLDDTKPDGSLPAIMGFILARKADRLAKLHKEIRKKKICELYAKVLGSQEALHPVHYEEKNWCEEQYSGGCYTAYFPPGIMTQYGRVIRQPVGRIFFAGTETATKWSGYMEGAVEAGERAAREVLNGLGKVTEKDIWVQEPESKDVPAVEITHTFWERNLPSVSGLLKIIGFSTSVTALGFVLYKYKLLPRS
Method: (§1) A total of 99 µL of substrate working solution was added into 1.1 mL incubation tubes and then 1 µL of the test compound/control working solution or DMSO (vehicle control) was added, mixed well, and pre-incubated at 37 °C for 5 min. MAO-A (0.005 mg/mL) and MAO-B (0.02 mg/mL) were pre-incubated in the working solution at 37 °C for 5 min. A total of 100 µL of pre-incubated MAO-A or MAO-B working solution was added to incubation tubes to start the reaction, mixed well, and incubated at 37 °C for 15 min. […] All samples were centrifuged at 4000 rpm at 4 °C for 15 min, then 100 µL supernatant with 100 µL of water was transferred for LC-MS/MS analysis.
(§2) Enzyme activity (%) = PAR with compound/PAR vehicle × 100.
(§3) The oxidation of kynuramine to 4-hydroxyquinoline generated was the in vitro marker reaction of MAO-A and MAO-B enzymes.

recombinant human MAO-B = biological target: T2, recombinant human MAO-B (Homo sapiens, UniProt P27338); test: as above; assay type: biochemical
T2 construct: purchased Corning
T2 sequence (P27338 1-520): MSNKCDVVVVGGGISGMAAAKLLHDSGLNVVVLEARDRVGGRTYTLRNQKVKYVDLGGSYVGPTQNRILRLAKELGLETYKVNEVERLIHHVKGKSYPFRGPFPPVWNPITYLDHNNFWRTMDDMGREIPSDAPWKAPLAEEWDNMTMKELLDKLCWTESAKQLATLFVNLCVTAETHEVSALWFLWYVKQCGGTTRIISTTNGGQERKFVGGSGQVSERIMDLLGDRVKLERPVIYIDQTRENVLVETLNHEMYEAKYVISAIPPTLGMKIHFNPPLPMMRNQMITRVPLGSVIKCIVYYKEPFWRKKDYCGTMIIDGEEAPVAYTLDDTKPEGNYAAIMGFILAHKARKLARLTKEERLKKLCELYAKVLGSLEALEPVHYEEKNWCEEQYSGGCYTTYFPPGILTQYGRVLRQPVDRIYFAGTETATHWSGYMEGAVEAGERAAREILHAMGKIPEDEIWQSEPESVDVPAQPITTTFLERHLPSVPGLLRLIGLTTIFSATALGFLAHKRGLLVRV
Method: as §1, §2, §3

OATP1B1 = biological target: T3, OATP1B1 (Homo sapiens, UniProt Q9Y6L6); test: Uptake transport inhibition in HEK293-OATP1B1 cells
T3 sequence (Q9Y6L6 1-691): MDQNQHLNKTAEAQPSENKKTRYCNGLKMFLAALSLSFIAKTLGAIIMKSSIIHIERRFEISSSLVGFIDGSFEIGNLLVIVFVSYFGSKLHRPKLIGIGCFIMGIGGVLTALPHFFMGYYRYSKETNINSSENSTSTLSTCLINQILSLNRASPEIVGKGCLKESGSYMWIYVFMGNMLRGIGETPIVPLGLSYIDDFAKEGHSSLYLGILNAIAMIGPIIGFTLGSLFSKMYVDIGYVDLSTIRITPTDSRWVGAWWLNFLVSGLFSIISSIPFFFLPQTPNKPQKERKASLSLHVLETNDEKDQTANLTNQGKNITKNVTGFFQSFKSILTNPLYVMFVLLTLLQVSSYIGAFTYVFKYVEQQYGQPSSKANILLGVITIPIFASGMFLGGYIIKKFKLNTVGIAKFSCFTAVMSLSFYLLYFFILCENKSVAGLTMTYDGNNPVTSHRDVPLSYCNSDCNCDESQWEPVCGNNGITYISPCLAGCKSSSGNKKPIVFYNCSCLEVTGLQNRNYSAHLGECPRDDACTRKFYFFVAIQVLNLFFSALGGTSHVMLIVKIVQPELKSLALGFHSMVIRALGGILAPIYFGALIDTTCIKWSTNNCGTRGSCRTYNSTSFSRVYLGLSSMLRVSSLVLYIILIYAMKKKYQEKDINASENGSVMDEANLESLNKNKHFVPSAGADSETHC
Method: HEK293-OATP1B1 and OATP1B3 cells were diluted to 1 × 10^6 cells/mL with DMEM supplemented with 1% non-essential amino acid (NEAA), 10% fetal bovine serum (FBS), 1% PS solution (100 U/mL penicillin-G and 100 μg/mL streptomycin), and seeded on a 96-well BioCoat™ poly-d-lysine plate at a density of 1 × 10^6 cells/mL. […] Once the cells were anchored on the plate, the cell culture was replaced with DMEM containing 10% FBS and 1% PS solution (100 U/mL penicillin-G and 100 μg/mL streptomycin solution) and cultured one day for the uptake and inhibition studies. The cell culture medium was removed from the 96-well plate, then rinsed twice with 0.1 mL/well of pre-warmed transport buffer. The transporter cells containing pre-incubation solution were pre-incubated at 37 °C for 30 min. Then the pre-incubation solution was removed and replaced with 0.1 mL/well of dosing solution containing a substrate, respectively (blank transporter buffer containing a substrate, transport buffer containing a substrate and PC, and transport buffer containing a substrate and salidroside). Then, the transporter cells were incubated at 37 °C for 2 min. After incubation, all solutions in the cells were discarded and rinsed with 0.10 mL/well of ice-cold transport buffer (4 °C) three times. […] All samples were shaken and centrifuged at 4000 rpm at 4 °C for 15 min and the supernatant was removed for future analysis by LC-MS/MS.
as §2
Estradiol-17β-glucuronide (substrate) was incubated with an OATP1B1-transfected HEK293 cell monolayer in the presence or absence of salidroside at concentrations up to 100 µM.

OC[C@H]1O[C@@H](OCCc2ccc(O)cc2)[C@H](O)[C@@H](O)[C@@H]1O [Salidroside]
IC50 (recombinant human MAO-A): > 50 µM | inhibition at 50 µM (recombinant human MAO-A; at 50 µM, read-out: maximum % inhibition of MAO-A): 13.3% | inhibition at 50 µM (recombinant human MAO-B; at 50 µM, read-out: maximum % inhibition of MAO-B): 22.5% | IC50 (recombinant human MAO-B; substrate kynuramine (20 µM), mean of N = 2): > 50 µM | IC50 (OATP1B1): > 100 µM | activity at 2 min, 100 µM (OATP1B1; human): 84.4% | inhibition at 2 min, 100 µM (OATP1B1; human): 15.5% | mean % of control activity / inhibition of OATP1B1 (OATP1B1; up to concentrations of 33.3 mM, 33.3 µM): unchanged; also recorded: no inhibition
